Measured values reported in patent US20250066351A1, “PYRAZOLO[1,5-A]PYRIDIN-2,3-YL AMIDES AS KV7 CHANNEL ACTIVATORS” (Biohaven Therapeutics Ltd., priority 2022, published 2025).

Each compound was assayed against T1, hKv7.2/7.3 (Homo sapiens, UniProt O43525+O43526) (assay: Kv7.2/7.3 Activation Assay, QPatch planar patch-clamp single concentration screen). Details: increase in current over baseline, Kv7.2/Kv7.3 co-expressing HEK cells, compound concentration 3 μM, steady-state current at end of 2 s pulse to −30 mV.
T1 construct: host or cells: HEK cells, tetracycline-inducible expression
Assay type: cell-based
Method: The ability of compounds to potentiate K-currents in Kv7.2/7.3 containing HEK cells was assessed using planar patch-clamp on the QPatch automated screening platform.
Cell Line: The hKv7.2/7.3 cell line was obtained from Chantest (Cleveland, OH 44128) cat. #CT6147. These HEK cells will express the Kv7.2/7.3 ion channels when induced.
Cell Culture: Cells were maintained in a media containing DMEM/F12; 50/50 (GIBCO cat. #11330), 10% Fetal Bovine Serum (FBS) (GIBCO cat. #26140), 100 units/mL Penicillin-Streptomycin (GIBCO cat. #15140), 0.005 mg/mL Blasticidin (INVIVOGEN cat. #ant-bl-1), 0.5 mg/mL Geneticin (GIBCO cat. #10131), 0.1 mg/mL Zeocin (GIBCO cat. #R25001). Cells used in the electrophysiology assay were maintained in a media without Blasticidin, Geneticin and Zeocin for 2 days and channel expression was induced by adding tetracycline (BIOLINE cat. #BIO-87030) at a final concentration of […]. Cells were grown in T-175 flask to ˜75% confluency. Currents were recorded 24 hours after channel induction.
Compound Plates: Test compounds were prepared by performing serial dilutions on a Biomek NX^P (BECKMAN COULTER). Final dilutions were made in external recording solution with a final DMSO concentration of 0.1% DMSO. For single concentration screens each plate had 10 μM retigabine as a positive control and 0.1% DMSO as a negative control.
Electrophysiology: On the day of the experiment cells were washed with Hank's Balanced Salt Solution (HBBS) (GIBCO cat. #14175) and harvested with Tryple (GIBCO cat. #12604). Cells were then centrifuged at 2000 rpm for 5 minutes and resuspended in CHO—S-SFM (GIBCO cat. #12052) at […]. Cells were stirred for 30 minutes before experiments were started. External recording solution contained (in mM): NaCl (145), KCl (4), CaCl2 (2), MgCl2 (1), HEPES (10) and Glucose (10); pH was adjusted to 7.4 with NaOH and the osmolarity was adjusted to 300-305 mOsM with sucrose if necessary. Internal solution contained (in mM): KCl (125), KF (10), EGTA (5), Na2ATP (5), MgCl2 (3.2), HEPES (5); pH was adjusted to 7.2 with KOH and the osmolarity was adjusted to 298-302 mOsM with sucrose.
Potassium channel activity was measured on the QPatch HTX (Sophion Bioscience) using QPlates with 48-wells/plate. Each cell was taken as an independent experiment and only one compound was tested per well. Potassium channel activity was elicited by holding at −80 mV and stepping to −30 mV for 2 s followed by a 100 ms pulse to −120 mV.
Single concentration screen: Baseline conditions were obtained by recording 5 sweeps in the external solution only, this was repeated for three applications of the external solution. The effect of test compounds on elicited current was then assessed by recording 5 sweeps in the presence of a 3 μM compound solution. The steady-state current at the end of the 2 s pulse to −30 mV was measured to determine the fold increase from baseline.

| QPatch Kv7.2/7.3 Activity | SMILES |
| --- | --- |
| + (2.0-3.99 (+)) | C[C@@](O)(CC(=O)Nc1nn2ccc(C(F)(F)F)cc2c1C1CCC1)c1ccccn1 [Example 35, (R)-N-(3-cyclobutyl-5-(trifluoromethyl)pyrazolo [1,5-a]pyridin-2-yl)-3-hydroxy-3-(pyridin-2-yl)butanamide] |
| + (2.0-3.99 (+)) | C[C@@](O)(CC(=O)Nc1nn2ccc(C#N)cc2c1C1CCC1)c1ccccn1 [Example 36, (R)-N-(5-cyano-3-cyclobutylpyrazolo[1,5-a]pyridin-2-yl)-3-hydroxy-3-(pyridin-2-yl)butanamide] |
| ++ (4.0-5.99 (++)) | C[C@@](O)(CC(=O)Nc1nn2ccc(C(F)(F)F)cc2c1-c1ccc(F)cc1)c1ccccn1 [Example 37, (R)-N-(3-(4-fluorophenyl)-5-(trifluoromethyl)pyrazolo [1,5-a]pyridin-2-yl)-3-hydroxy-3-(pyridin-2-yl)butanamide] |
| ++ (4.0-5.99 (++)) | C[C@@](O)(CC(=O)Nc1nn2ccc(C(F)(F)F)cc2c1-c1ccccc1)c1ccccn1 [Example 38, (R)-3-hydroxy-N-(3-phenyl-5-(trifluoromethyl)pyrazolo [1,5-a]pyridin-2-yl)-3-(pyridin-2-yl)butanamide] |
| + (2.0-3.99 (+)) | C[C@@](O)(CC(=O)Nc1nn2ccc(C(F)(F)F)cc2c1-c1cccc(F)c1)c1ccccn1 [Example 39, (R)-N-(3-(3-fluorophenyl)-5-(trifluoromethyl)pyrazolo [1,5-a]pyridin-2-yl)-3-hydroxy-3-(pyridin-2-yl)butanamide] |
| + (2.0-3.99 (+)) | Cc1ccc(-c2c(NC(=O)C[C@@](C)(O)c3ccccn3)nn3ccc(C(F)(F)F)cc23)cc1 [Example 40, (R)-3-hydroxy-3-(pyridin-2-yl)-N-(3-(p-tolyl)-5-(trifluoromethyl)pyrazolo[1,5-a]pyridin-2-yl)butanamide] |
| ++ (4.0-5.99 (++)) | C[C@](O)(CC(=O)Nc1nn2ccc(C(F)(F)F)cc2c1C1CCC1)c1ccccn1 [Example 41, (S)-N-(3-cyclobutyl-5-(trifluoromethyl)pyrazolo [1,5-a]pyridin-2-yl)-3-hydroxy-3-(pyridin-2-yl)butanamide] |
| + (2.0-3.99 (+)) | C[C@](O)(CC(=O)Nc1nn2ccc(C(F)(F)F)cc2c1-c1ccc(F)cc1)c1ccccn1 [Example 42, (S)-N-(3-(4-fluorophenyl)-5-(trifluoromethyl)pyrazolo [1,5-a]pyridin-2-yl)-3-hydroxy-3-(pyridin-2-yl)butanamide] |
| + (2.0-3.99 (+)) | C[C@](O)(CC(=O)Nc1nn2ccc(C#N)cc2c1C1CCC1)c1ccccn1 [Example 43, (S)-N-(5-cyano-3-cyclobutylpyrazolo[1,5-a]pyridin-2-yl)-3-hydroxy-3-(pyridin-2-yl)butanamide] |
| + (2.0-3.99 (+)) | CC(C)(O)CC(=O)Nc1nn2ccc(C(F)(F)F)cc2c1-c1ccc(Cl)s1 [Example 44, N-(3-(5-chlorothiophen-2-yl)-5-(trifluoromethyl)pyrazolo [1,5-a]pyridin-2-yl)-3-hydroxy-3-methylbutanamide] |
| +/− (1.2-1.99-fold (+/−)) | CC(C)(O)CC(=O)Nc1nn2ccc(C(F)(F)F)cc2c1-c1ccc(Cl)nc1 [Example 45, N-(3-(6-chloropyridin-3-yl)-5-(trifluoromethyl)pyrazolo [1,5-a]pyridin-2-yl)-3-hydroxy-3-methylbutanamide] |
| +/− (1.2-1.99-fold (+/−)) | CC(C)(O)CC(=O)Nc1nn2ccc(C(F)(F)F)cc2c1-c1ccccc1F [Example 46, N-(3-(2-fluorophenyl)-5-(trifluoromethyl)pyrazolo [1,5-a]pyridin-2-yl)-3-hydroxy-3-methylbutanamide] |
| + (2.0-3.99 (+)) | Cc1cccc(-c2c(NC(=O)CC(C)(C)O)nn3ccc(C(F)(F)F)cc23)c1 [Example 47, 3-hydroxy-3-methyl-N-(3-(m-tolyl)-5-(trifluoromethyl)pyrazolo [1,5-a]pyridin-2-yl)butanamide] |
